In patent US5466671A, “Apidaecin-type peptide antibiotics with improved activities and/or different antibacterial spectrum” (priority 1994, dated 1995):
Residues, ends and D or L forms follow the SMILES beside them.

Key:
[1] = test system: Escherichia coli (ATCC11775); assay: Inhibition zone assay (agar plate); assay type: cell-based; details: agar plate, 50 nanomoles/well, 3 mm wells
[2] = test system: Escherichia coli (11775 Apid R); assay type: cell-based; details: agar plate, 50 nanomoles/well, 3 mm wells
[3] = test system: Escherichia coli (K514); assay type: cell-based; details: agar plate, 50 nanomoles/well, 3 mm wells
[4] = test system: Enterobacter cloacae; assay: Inhibition zone assay (agar plate); assay type: cell-based; details: agar plate, 50 nanomoles/well, 3 mm wells
[5] = test system: Erwinia amylovora; assay: Inhibition zone assay (agar plate); assay type: cell-based; details: agar plate, 50 nanomoles/well, 3 mm wells
[6] = test system: Klebsiella pneumoniae; assay: Inhibition zone assay (agar plate); assay type: cell-based; details: agar plate, 50 nanomoles/well, 3 mm wells
[7] = test system: Morganella morganii; assay: Inhibition zone assay (agar plate); assay type: cell-based; details: 50 nanomoles/well, 3 mm wells
[8] = test system: Salmonella typhimurium; assay: Inhibition zone assay (agar plate); assay type: cell-based; details: agar plate, 50 nanomoles/well, 3 mm wells
[9] = test system: Salmonella typhi; assay type: cell-based; details: agar plate, 50 nanomoles/well, 3 mm wells
[10] = test system: Campylobacter jejuni; assay: Inhibition zone assay (agar plate); assay type: cell-based; details: 50 nanomoles/well, 3 mm wells
[11] = test system: Acinetobacter calcoaceticus; assay: Inhibition zone assay (agar plate); assay type: cell-based; details: agar plate, 50 nanomoles/well, 3 mm wells
[12] = test system: Agrobacterium tumefaciens; assay: Inhibition zone assay (agar plate); assay type: cell-based; details: agar plate, 50 nanomoles/well, 3 mm wells
[13] = test system: Legionella pneumophila; assay type: cell-based; details: agar plate, 50 nanomoles/well, 3 mm wells
[14] = test system: Pseudomonas syringae; assay: Inhibition zone assay (agar plate); assay type: cell-based; details: agar plate, 50 nanomoles/well, 3 mm wells
[15] = test system: Rhizobium meliloti; assay: Inhibition zone assay (agar plate); assay type: cell-based; details: 50 nanomoles/well, 3 mm wells
[16] = test system: Haemophilus influenzae; assay: Inhibition zone assay (agar plate); assay type: cell-based; details: 50 nanomoles/well, 3 mm wells
[17] = test system: E. coli Apid^R; assay: Minimal inhibitory concentration (liquid culture); assay type: cell-based; details: a-b = highest concentration with growth - lowest without growth
Text: For details see `Experimental Procedures`.

[18] = test system: E. coli 11775; assay: Minimal inhibitory concentration (liquid culture); details: for minimal inhibitory concentration (MIC): a-b = highest concentration with growth - lowest without growth
[19] = test system: E. coli 23802; assay: Minimal inhibitory concentration (liquid culture); details: inoculum 5000 CFU/ml; a-b = highest concentration with growth - lowest without growth
[20] = test system: E. coli 25922; assay: Minimal inhibitory concentration (liquid culture); details: inoculum 1100 CFU/ml; a-b = highest concentration with growth - lowest without growth
[21] = test system: S. typhimurium; assay: Minimal inhibitory concentration (liquid culture); details: inoculum 8 × 10^6 CFU/ml; a-b = highest concentration with growth - lowest without growth
[22] = test system: A. calcoaceticus; assay: Minimal inhibitory concentration (liquid culture); details: inoculum 16 × 10^6 CFU/ml; a-b = highest concentration with growth - lowest without growth
[23] = test system: M. morganii; assay: Minimal inhibitory concentration (liquid culture); details: inoculum 400 CFU/ml; a-b = highest concentration with growth - lowest without growth
[24] = test system: Y. enterocolitica; assay: Minimal inhibitory concentration (liquid culture); details: inoculum 5000 CFU/ml; a-b = highest concentration with growth - lowest without growth
[25] = test system: Shigella dysenteriae; assay type: cell-based; details: agar plate, 50 nanomoles/well, 3 mm wells

| Compound | inhibition zone diameter (number of plus signs) [1] | inhibition zone diameter (number of plus signs) [2] | inhibition zone diameter (number of plus signs) [3] | inhibition zone diameter (number of plus signs) [4] | inhibition zone diameter (number of plus signs) [5] | inhibition zone diameter (number of plus signs) [6] | inhibition zone diameter (number of plus signs) [7] | inhibition zone diameter (number of plus signs) [8] | inhibition zone diameter (number of plus signs) [10] | inhibition zone diameter (number of plus signs) [11] | inhibition zone diameter (number of plus signs) [12] | inhibition zone diameter (number of plus signs) [13] | inhibition zone diameter (number of plus signs) [14] | inhibition zone diameter (number of plus signs) [15] | inhibition zone diameter (number of plus signs) [16] | minimal inhibitory concentration (MIC) ([17]; inoculum 1000 CFU/ml) [µg/mL] | minimal inhibitory concentration (MIC) ([18]; inoculum 16 × 10^6 CFU/ml) [µg/mL] | minimal inhibitory concentration (MIC) ([18]; inoculum 1200 CFU/ml) [µg/mL] | minimal inhibitory concentration (MIC) [19] [µg/mL] | minimal inhibitory concentration (MIC) [20] [µg/mL] | also measured |
| --- | --- | --- | --- | --- | --- | --- | --- | --- | --- | --- | --- | --- | --- | --- | --- | --- | --- | --- | --- | --- | --- |
| CC[C@H](C)[C@H](NC(=O)[C@@H]1CCCN1C(=O)[C@H](C)NC(=O)[C@@H]1CCCN1C(=O)[C@H](CCCNC(=N)N)NC(=O)[C@@H]1CCCN1C(=O)[C@H](CCCCN)NC(=O)[C@H](CO)NC(=O)[C@@H]1CCCN1C(=O)[C@H](CCCCN)NC(=O)CN)C(=O)N[C@@H](CCCCN)C(=O)N1CCC[C@H]1C(=O)N[C@@H](CCCNC(=N)N)C(=O)N1CCC[C@H]1C(=O)N1CCC[C@H]1C(=O)N[C@@H](Cc1c[nH]cn1)C(=O)N1CCC[C@H]1C(=O)N[C@@H](CCCNC(=N)N)C(=O)N[C@@H](CC(C)C)C(=O)O [Cd 3+, Gly--Lys--Pro--Ser--Lys--Pro--Arg--Pro--Ala--Pro--Ile--Lys--Pro--Arg--Pro--Pro--His--Pro--Arg--Leu] (H-GKPSKPRPAPIKPRPPHPRL-OH) | ++ ((++) 7-9 mm) | ++ ((++) 7-9 mm) | + ((+) 5-6 mm) | +++ ((+++) 10-14 mm) | + ((+) 5-6 mm) | ++ ((++) 7-9 mm) | ++ ((++) 7-9 mm) | ++ ((++) 7-9 mm) | +++++ ((+++++) 20 or more min) | + ((+) 5-6 mm) | +++ ((+++) 10-14 mm) | ++ ((++) 7-9 mm) | ++ ((++) 7-9 mm) | +++ ((+++) 10-14 mm) | ++++ ((++++) 15-19 mm) | 0.5 to 1 | 0.1 to 0.5 | 0.1 to 0.5 | 0.1 to 0.5 | 0.1 to 0.5 | inhibition zone diameter (number of plus signs) [9]: ++ ((++) 7-9 mm); minimal inhibitory concentration (MIC) ([17]; inoculum 12 × 10^6 CFU/ml): 0.5 to 1.5 µg/mL; minimal inhibitory concentration (MIC) ([17]; inoculum 12 × 10^6 CFU/ml, listed as Cd3+): measurable activities; inoculum effect on inhibition of viability ([18]; inoculum sizes differing by four orders of magnitude): equally well; minimal inhibitory concentration (MIC) [21]: 0.1 to 0.5 µg/mL; minimal inhibitory concentration (MIC) [22]: 10 to 20 µg/mL; minimal inhibitory concentration (MIC) [23]: 1 to 5 µg/mL; minimal inhibitory concentration (MIC) [24]: 10 to 20 µg/mL |
| CC[C@H](C)[C@H](NC(=O)[C@@H]1CCCN1C(=O)[C@H](C)NC(=O)[C@@H]1CCCN1C(=O)[C@H](CCCNC(=N)N)NC(=O)[C@@H]1CCCN1C(=O)[C@H](CCCCN)NC(=O)[C@@H](N)CC(N)=O)C(=O)N[C@@H](CCCCN)C(=O)N1CCC[C@H]1C(=O)N[C@@H](CCCNC(=N)N)C(=O)N1CCC[C@H]1C(=O)N1CCC[C@H]1C(=O)N[C@@H](Cc1c[nH]cn1)C(=O)N1CCC[C@H]1C(=O)N[C@@H](CCCNC(=N)N)C(=O)N[C@@H](CC(C)C)C(=O)O [Cd 2-, Asn--Lys--Pro--Arg--Pro--Ala--Pro--Ile--Lys--Pro--Arg--Pro--Pro--His--Pro--Arg--Leu] (H-NKPRPAPIKPRPPHPRL-OH) | +++ ((+++) 10-14 mm) | ++ ((++) 7-9 mm) | ++ ((++) 7-9 mm) | +++ ((+++) 10-14 mm) | +++ ((+++) 10-14 mm) | ++ ((++) 7-9 mm) | ++ ((++) 7-9 mm) | + ((+) 5-6 mm) | +++ ((+++) 10-14 mm) | + ((+) 5-6 mm) | ++++ ((++++) 15-19 mm) | ++ ((++) 7-9 mm) | +++ ((+++) 10-14 mm) | +++ ((+++) 10-14 mm) | ++ ((++) 7-9 mm) | 5 to 10 | 0.5 to 1 | 0.5 to 1 | 10 to 20 | 0.5 to 1 | inhibition zone diameter (number of plus signs) [9]: + ((+) 5-6 mm); inhibition zone diameter (number of plus signs) [25]: ++ ((++) 7-9 mm); minimal inhibitory concentration (MIC) [21]: 1 to 5 µg/mL; minimal inhibitory concentration (MIC) [22]: 10 to 20 µg/mL; minimal inhibitory concentration (MIC) [23]: 1 to 5 µg/mL; minimal inhibitory concentration (MIC) [24]: > 40 µg/mL |
| CC[C@H](C)[C@H](NC(=O)[C@@H]1CCCN1C(=O)[C@H](C)NC(=O)[C@@H]1CCCN1C(=O)[C@H](CCCNC(=N)N)NC(=O)[C@@H]1CCCN1C(=O)[C@H](CCCCN)NC(=O)[C@@H](N)CO)C(=O)N[C@@H](CCCCN)C(=O)N1CCC[C@H]1C(=O)N[C@@H](CCCNC(=N)N)C(=O)N1CCC[C@H]1C(=O)N1CCC[C@H]1C(=O)N[C@@H](Cc1c[nH]cn1)C(=O)N1CCC[C@H]1C(=O)N[C@@H](CCCNC(=N)N)C(=O)N[C@@H](CC(C)C)C(=O)O [Cd 3-, Ser--Lys--Pro--Arg--Pro--Ala--Pro--Ile--Lys--Pro--Arg--Pro--Pro--His--Pro--Arg--Leu] (H-SKPRPAPIKPRPPHPRL-OH) | ++ ((++) 7-9 mm) | ++ ((++) 7-9 mm) | + ((+) 5-6 mm) | +++ ((+++) 10-14 mm) | + ((+) 5-6 mm) | ++ ((++) 7-9 mm) | ++ ((++) 7-9 mm) | ++ ((++) 7-9 mm) | ++++ ((++++) 15-19 mm) | + ((+) 5-6 mm) | ++ ((++) 7-9 mm) | ++ ((++) 7-9 mm) | ++ ((++) 7-9 mm) | ++++ ((++++) 15-19 mm) | +++ ((+++) 10-14 mm) | 5 to 10 | 0.5 to 1 | 0.1 to 0.5 | 5 to 10 | 0.5 to 1 | inhibition zone diameter (number of plus signs) [25]: ++ ((++) 7-9 mm); minimal inhibitory concentration (MIC) ([17]; inoculum 12 × 10^6 CFU/ml): 5 to 10 µg/mL; minimal inhibitory concentration (MIC) [21]: 1 to 5 µg/mL; minimal inhibitory concentration (MIC) [22]: 10 to 20 µg/mL; minimal inhibitory concentration (MIC) [23]: 1 to 5 µg/mL; minimal inhibitory concentration (MIC) [24]: 20 to 40 µg/mL |
